Data: patent US7566733B2, “Benzimidazole derivatives useful as selective androgen receptor modulators (sarms)” (priority 2004, dated 2009)

System: castrated male Sprague Dawley rats
Experiment: Ventral Prostate and Seminal Vesicle Weight In Vivo Assay; note: key: active: the non weight adjusted prostate weight was ≦40 mg or the % Inhibition prostate weight, body weight adjusted was ≧40%@2 mg/day dosage; inactive: did not meet the specified criteria defined above
Conditions: inhibition of testosterone-enhanced prostate weight; immature castrated rats, once daily for five days, usually orally 40 mg/kg, with testosterone propionate 2 mg/kg s.c.
Protocol: Ventral Prostate and Seminal Vesicle Weight In Vivo Assay; note: key: active: the non weight adjusted prostate weight was ≦40 mg or the % Inhibition prostate weight, body weight adjusted was ≧40%@2 mg/day dosage; inactive: did not meet the specified criteria defined above
Immature (approximately 50 g) castrated male Sprague Dawley rats (Charles River) were treated once daily for five days with test compound (usually given orally at 40 mg/kg in a volume of 0.3 mL, in 30% cyclodextrin or 0.5% methylcellulose vehicle) and with testosterone propionate (given subcutaneously by injection at the nape of the neck at 2 mg/kg, in a volume of 0.1 mL in sesame oil). On the sixth day, the rats were euthanized by asphyxiation in carbon dioxide. Ventral prosatates and seminal vesicles were removed and their wet weights determined. Test compound activity was determined as the percent inhibition of testosterone-enhanced tissue weights, with a vehicle-treated control group set to zero percent and a testosterone alone-treated control group set to 100%.
Representative compounds of the present invention were tested according to the procedure described, with results as listed in Table 7 below. A test compound is listed as “active” if the non weight adjusted prostate weight was ≦40 mg or the % Inhibition prostate weight, body weight adjusted was ≧40%@2 mg/day dosage. ID50's, if determined, of ≦15 mg/day also indicated an “active” compound.

How did the Activity turn out when `FC(F)(F)Cc1nc2cc(Cl)c(Cl)cc2n1Cc1ccccc1` [Compound 97, 1-Benzyl-5,6-dichloro-2-(2,2,2-trifluoro-ethyl)-1H-benzoimidazole] was run?
Its Activity is “active”.

`OCCn1c(CC(F)(F)F)nc2cc(Cl)c(Cl)cc21` [Compound 98, 2-[5,6-Dichloro-2-(2,2,2-trifluoro-ethyl)-benzoimidazol-1-yl]-ethanol] was tested. Which Activity did it give?
The Activity was “active”.

Which Activity does the source give for `FC(F)(F)Cc1nc2cc(Cl)c(Cl)cc2n1Cc1cccnc1` [Compound 99, 5,6-Dichloro-1-pyridin-3-ylmethyl-2-(2,2,2-trifluoro-ethyl)-1H-benzoimidazole] here?
The Activity was “active”.

`FC(F)(F)Cc1nc2cc(Cl)c(Cl)cc2n1Cc1ccc(C(F)(F)F)cc1` [Compound 100, 5,6-Dichloro-2-(2,2,2-trifluoro-ethyl)-1-(4-trifluoromethyl-benzyl)-1H-benzoimidazole] was tested. Which Activity did it give?
The Activity was “active”.

Which Activity does the source give for `FC(F)(F)Cc1nc2cc(Cl)c(Cl)cc2n1Cc1ccc(OC(F)(F)F)cc1` [Compound 101, 5,6-Dichloro-2-(2,2,2-trifluoro-ethyl)-1-(4-trifluoromethoxy-benzyl)-1H-benzoimidazole] here?
The Activity was “inactive”.

How did the Activity turn out when `FC(F)(F)Cc1nc2cc(Cl)c(Cl)cc2n1Cc1ccccn1` [Compound 102, 5,6-Dichloro-1-pyridin-2-ylmethyl-2-(2,2,2-trifluoro-ethyl)-1H-benzoimidazole] was run?
Its Activity is “active”.

How did the Activity turn out when `O=C(Cn1c(CC(F)(F)F)nc2cc(Cl)c(Cl)cc21)c1ccc2c(c1)OCCO2` [Compound 104, 2-[5,6-Dichloro-2-(2,2,2-trifluoro-ethyl)-benzoimidazol-1-yl]-1-(2,3-dihydro-benzo[1,4]dioxin-6-yl)-ethanone] was run?
The Activity was “inactive”.

Which Activity does the source give for `O=[N+]([O-])c1ccc(Cn2c(CC(F)(F)F)nc3cc(Cl)c(Cl)cc32)cc1` [Compound 105, 5,6-Dichloro-1-(4-nitro-benzyl)-2-(2,2,2-trifluoro-ethyl)-1H-benzoimidazole] here?
The Activity was “active”.

With `CO[C@@](C(=O)OC(c1nc2cc(Cl)c(Cl)cc2[nH]1)C(F)(F)F)(c1ccccc1)C(F)(F)F` (stereo partly drawn) [Compound 106] as the molecule, how does the Activity read?
The Activity was “active”.

How did the Activity turn out when `FC(F)(F)Cc1nc2cc(Cl)c(Cl)cc2n1Cc1ccncc1` [Compound 108, 5,6-Dichloro-1-pyridin-4-ylmethyl-2-(2,2,2-trifluoro-ethyl)-1H-benzoimidazole] was run?
The Activity was “active”.

Which Activity does the source give for `N#Cc1cccc(Cn2c(CC(F)(F)F)nc3cc(Cl)c(Cl)cc32)c1` [Compound 109, 3-[5,6-Dichloro-2-(2,2,2-trifluoro-ethyl)-benzoimidazol-1-ylmethyl]-benzonitrile] here?
The Activity was “active”.

`N#Cc1ccccc1Cn1c(CC(F)(F)F)nc2cc(Cl)c(Cl)cc21` [Compound 110, 2-[5,6-Dichloro-2-(2,2,2-trifluoro-ethyl)-benzoimidazol-1-ylmethyl]-benzonitrile] was tested. Which Activity did it give?
Its Activity is “active”.

`Cc1cc2nc(C(O)C(F)(F)F)[nH]c2cc1C` (stereo not drawn) [Compound 111, 1-(5,6-Dimethyl-1H-benzoimidazol-2-yl-)2,2,2-trifluoro-ethanol] was tested. Which Activity did it give?
The Activity was “inactive”.

With `OC(c1nc2cc(Cl)c(F)cc2[nH]1)C(F)(F)F` (stereo not drawn) [Compound 112, 1-(5-Chloro-6-fluoro-1H-benzoimidazol-2-yl-)2,2,2-trifluoro-ethanol] as the molecule, how does the Activity read?
The Activity was “active”.

For `OC(c1nc2cc(F)c(F)cc2[nH]1)C(F)(F)F` (stereo not drawn) [Compound 113, 1-(5,6-Difluoro-1H-benzoimidazol-2-yl-)2,2,2-trifluoro-ethanol], which Activity is on record?
The Activity was “inactive”.

How did the Activity turn out when `O=C(c1nc2cc(Cl)c(Cl)cc2[nH]1)C(F)(F)F` [Compound 114, 1-(5,6-DiChloro-1H-benzoimidazol-2-yl)-2,2,2-trifluoro-ethanone] was run?
Its Activity is “active”.

With `Fc1ccc(OCCn2c(CC(F)(F)F)nc3cc(Cl)c(Cl)cc32)cc1` [Compound 115, 5,6-Dichloro-1-[2-(4-fluoro-phenoxy)-ethyl]-2-(2,2,2-trifluoro-ethyl)-1H-benzoimidazole] as the molecule, how does the Activity read?
The Activity was “active”.

How did the Activity turn out when `N#Cc1ccc(Cn2c(CC(F)(F)F)nc3cc(Cl)c(Cl)cc32)cc1` [Compound 116, 4-[5,6-Dichloro-2-(2,2,2-trifluoro-ethyl)-benzoimidazol-1-ylmethyl]-benzonitrile] was run?
The Activity was “active”.

Which Activity does the source give for `Fc1ccccc1Cn1c(CC(F)(F)F)nc2cc(Cl)c(Cl)cc21` [Compound 117, 5,6-Dichloro-1-(2-fluoro-benzyl)-2-(2,2,2-trifluoro-ethyl)-1H-benzoimidazole] here?
Its Activity is “active”.

How did the Activity turn out when `Fc1cccc(Cn2c(CC(F)(F)F)nc3cc(Cl)c(Cl)cc32)c1` [Compound 119, 5,6-Dichloro-1-(3-fluoro-benzyl)-2-(2,2,2-trifluoro-ethyl)-1H-benzoimidazole] was run?
The Activity was “active”.

With `FC(F)(F)Cc1nc2cc(Cl)c(Cl)cc2n1Cc1cccc(Cl)c1` [Compound 120, 5,6-Dichloro-1-(3-chloro-benzyl)-2-(2,2,2-trifluoro-ethyl)-1H-benzoimidazole] as the molecule, how does the Activity read?
Its Activity is “active”.

With `FC(F)(F)Cc1nc2cc(Cl)c(Cl)cc2n1Cc1ccc(Cl)cc1` [Compound 121, 5,6-Dichloro-1-(4-chloro-benzyl)-2-(2,2,2-trifluoro-ethyl)-1H-benzoimidazole] as the molecule, how does the Activity read?
Its Activity is “active”.

`Fc1cccc(OCCn2c(CC(F)(F)F)nc3cc(Cl)c(Cl)cc32)c1` [Compound 123, 5,6-Dichloro-1-[2-(3-fluoro-phenoxy)-ethyl]-2-(2,2,2-trifluoro-ethyl)-1H-benzoimidazole] was tested. Which Activity did it give?
Its Activity is “inactive”.

With `FC(F)(F)Cc1nc2cc(Cl)c(Cl)cc2n1CCOc1ccc(Cl)cc1` [Compound 124, 5,6-Dichloro-1-[2-(4-chloro-phenoxy)-ethyl]-2-(2,2,2-trifluoro-ethyl)-1H-benzoimidazole] as the molecule, how does the Activity read?
The Activity was “active”.

With `FC(F)(F)Cc1nc2cc(Cl)c(Cl)cc2n1Cc1ccccc1Cl` [Compound 125, 5,6-Dichloro-1-(2-chloro-benzyl)-2-(2,2,2-trifluoro-ethyl)-1H-benzoimidazole] as the molecule, how does the Activity read?
Its Activity is “active”.

How did the Activity turn out when `Cc1onc(-c2ccccc2)c1C(=O)Cn1c(CC(F)(F)F)nc2cc(Cl)c(Cl)cc21` [Compound 126, 2-[5,6-Dichloro-2-(2,2,2-trifluoro-ethyl)-benzoimidazol-1-yl]-1-(5-methyl-3-phenyl-isoxazol-4-yl)-ethanone] was run?
The Activity was “inactive”.

How did the Activity turn out when `Cc1cc2[nH]c(C(O)C(F)(F)F)nc2cc1Cl` (stereo not drawn) [Compound 128, 1-(5-Chloro-6-methyl-1H-benzoimidazol-2-yl-)2,2,2-trifluoro-ethanol] was run?
Its Activity is “inactive”.

How did the Activity turn out when `COc1cccc(Cn2c(CC(F)(F)F)nc3cc(Cl)c(Cl)cc32)c1` [Compound 129, 5,6-Dichloro-1-(3-methoxy-benzyl)-2-(2,2,2-trifluoro-ethyl)-1H-benzoimidazole] was run?
The Activity was “inactive”.

For `FC(F)(F)Cc1nc2cc(Cl)c(Cl)cc2n1Cc1ccc(-n2cccn2)cc1` [Compound 131, 5,6-Dichloro-1-(4-pyrazol-1-yl-benzyl)-2-(2,2,2-trifluoro-ethyl)-1H-benzoimidazole], which Activity is on record?
Its Activity is “inactive”.

Which Activity does the source give for `FC(F)(F)Cc1nc2cc(Cl)c(Cl)cc2n1Cc1ccc(-c2csnn2)cc1` [Compound 132, 5,6-Dichloro-1-(4-[1,2,3]thiadiazol-4-yl-benzyl)-2-(2,2,2-trifluoro-ethyl)-1H-benzoimidazole] here?
The Activity was “inactive”.

`Cc1oncc1Cn1c(CC(F)(F)F)nc2cc(Cl)c(Cl)cc21` [Compound 133, 5,6-Dichloro-1-(5-methyl-isoxazol-4-ylmethyl)-2-(2,2,2-trifluoro-ethyl)-1H-benzoimidazole] was tested. Which Activity did it give?
Its Activity is “active”.

Which Activity does the source give for `FC(F)(F)Cc1nc2cc(Cl)c(Cl)cc2n1Cc1cccc(OC(F)(F)F)c1` [Compound 134, 5,6-Dichloro-2-(2,2,2-trifluoro-ethyl)-1-(3-trifluoromethoxy-benzyl)-1H-benzoimidazole] here?
The Activity was “inactive”.

How did the Activity turn out when `N#Cc1cc2nc(C(O)C(F)(F)F)[nH]c2cc1C(F)(F)F` (stereo not drawn) [Compound 135, 2-(2,2,2-Trifluoro-1-hydroxy-ethyl)-6-trifluoromethyl-1H-benzoimdazole-5-carbonitrile] was run?
The Activity was “inactive”.

For `N#Cc1ccc(OCCn2c(CC(F)(F)F)nc3cc(Cl)c(Cl)cc32)cc1` [Compound 136, 4-{2-[5,6-Dichloro-2-(2,2,2-trifluoro-ethyl)-benzoimidazol-1-yl]-ethoxy}-benzonitrile], which Activity is on record?
Its Activity is “active”.

For `O=[N+]([O-])c1ccccc1Cn1c(CC(F)(F)F)nc2cc(Cl)c(Cl)cc21` [Compound 137, 5,6-Dichloro-1-(2-nitro-benzyl)-2-(2,2,2-trifluoro-ethyl)-1H-benzoimidazole], which Activity is on record?
The Activity was “active”.

How did the Activity turn out when `FC(F)(F)Cc1nc2cc(Cl)c(Cl)cc2n1Cc1ccc(-n2cccc2)cc1` [Compound 138, 5,6-Dichloro-1-(4-pyrrol-1-yl-benzyl)-2-(2,2,2-trifluoro-ethyl)-1H-benzoimidazole] was run?
Its Activity is “active”.

With `O=[N+]([O-])c1cccc(Cn2c(CC(F)(F)F)nc3cc(Cl)c(Cl)cc32)c1` [Compound 139, 5,6-Dichloro-1-(3-nitro-benzyl)-2-(2,2,2-trifluoro-ethyl)-1H-benzoimidazole] as the molecule, how does the Activity read?
Its Activity is “active”.

How did the Activity turn out when `FC(F)(F)Cc1nc2cc(Cl)c(Cl)cc2n1Cc1ccc(SC(F)(F)F)cc1` [Compound 140, 5,6-Dichloro-2-(2,2,2-trifluoro-ethyl)-1-(4-trifluoromethvlsulfanvl-benzvl)-1H-benzoimidazole] was run?
Its Activity is “inactive”.

With `CS(=O)(=O)c1ccc(Cn2c(CC(F)(F)F)nc3cc(Cl)c(Cl)cc32)cc1` [Compound 142, 5,6-Dichloro-1-(4-methanesulfonyl-benzyl)-2-(2,2,2-trifluoro-ethyl)-1H-benzoimidazole] as the molecule, how does the Activity read?
Its Activity is “inactive”.
